Laboratory results published in US20250115598A1 (Anaxis Pharma Pty Ltd, priority 2021, published 2025).
Like-named read-outs stand apart in the source and are kept apart here.

How the values were obtained:
[1] = tested on: Immortalised Mouse Dermal Fibroblasts (MDFs); test: Cellular assay: inhibition of TSI induced necroptosis, CellTitre-Glo viability; conditions: Mus musculus, Fibroblast, MDF, 3 hours TSI cocktail, read-out: Inhibition of TSI-induced necroptosis (IC50 cell-based assay) in MDF
Method: Cellular Assay: Screening Compounds for Inhibition of TSI Induced Necroptosis in, 384 Well Plate Format.
• Cell Line ID: Immortalised Mouse Dermal Fibroblasts (MDFs). • Cell Concentration (cells/well): Final cell density is 2200 cells per well. • Cell growth medium: DMEM medium+7.4% Fetal Bovine Serum (FBS). Cells are cultured in Corning 150 cm^2 tissue culture flasks with vented caps at 37° C./10% CO2. • Incubation: Plates were incubated for 30 minutes following addition of compounds and then 3 hours incubation with death stimuli (TSI cocktail) at 37° C./10% CO2 in a humidified incubator. • Compound concentration: 36 μM starting concentration, 1:3 dilution, 10 point • DMSO final concentration (% v/v): 0.3%. Compounds in TSI Cocktail (T: TNF; S: Smac Mimetic; I: IDN-6556) and their Final Concentrations: • rhTNF (100 ng/ml) • Compound a (500 nM)—Smac Mimetic, Tetralogic and SYNthesis Med Chem • IDN-6556 (10 μM)—Selleckchem (S7775)
The cellular assay was carried out according to the following steps: • 1. Each well was prepared by sequential addition of: • a. 40 μL of cell suspension (5.5×10^4 cells/mL) was added to each well to provide a final cell concentration of 2,200 cells per well. • b. After 24 hours, DMSO (control; columns 1-2 and 23-24) or compound in DMSO—addition was performed using acoustic transfer of nL volumes of stock compound to give final test concentrations of 36, 12, 4, 1.3, 0.44, 0.148, 0.049, 0.016, 0.005 and 0.002 μM. All wells were backfilled with DMSO to a final total volume in the well of 100 nL. • c. Following compound/DMSO addition in step (b), Plates were incubated for 30 minutes at 37° C./10% CO2 in a humidified incubator and then 10 μL of 5×TSI cocktail (except to positive controls; columns 2 and 24) was added to each well. • 2. After 3 hours, plate was removed from the 37° C. incubator and equilibrated to room temperature for 15 minutes. • 3. 15 μL of room temperatured CellTitre-Glo2™ (Promega™) was added to each well. • 4. Shook plates for 2 minutes (˜600 rpm) and incubated at room temperature for 15 minutes to allow signal to stabilise. • 5. Read luminescence readout on a plate reader.
Percent viability was calculated for each compound according to equation (2):
[formula] • Wherein RawData is the readout of any cell containing a compound of the invention.
TA is the total activity provided by the luminescence readout from DMSO only wells (columns 2 and 24)=100% viability.
NSA is the non-specific activity provided by DMSO+TSI wells (columns 1 and 23)=0% viability • Curve fitting: 10-point titration curves are fitted with the 4-parameter logistic nonlinear regression model and the IC50 reported is the inflection point of the curve • Analysis: Data was loaded into Dotmatics™ and visualised using the Tibco@ • Spotfire™ software. 10 point titration curves were fitted with the 4 parameter logistic nonlinear regression model and the IC50 reported reflect the inflection point of the curve for curve fitting.
Assay involving the TSI cocktail (T: TNF; S: Smac mimetic; I: IDN-6556): TSI treatment ensures that cells specifically undergo necroptotic cell death. TNF activates the TNF receptor, Smac mimetic directs the signal away from proinflammatory signaling and toward the RIPK1/RIPK3-mediated cell death pathways, and IDN-6556 (Caspase inhibitor) ensures that the apoptotic response is blocked leaving only the programmed necrosis response. The compounds' activity (solution in DMSO) tested in this TSI-induced assay was evaluated by determining the number of viable cells in culture by measuring the amount of ATP present as measured by CelltiterGlo.

human MLKL (full length) = human MLKL (full length) (Homo sapiens (Human), UniProt Q8NB16); test: KINOMEscan binding assay, human MLKL (full length); conditions: hMLKL, Table 25; read-out: MLKL (KD)
Chain of human MLKL (full length) (Q8NB16 whole entry): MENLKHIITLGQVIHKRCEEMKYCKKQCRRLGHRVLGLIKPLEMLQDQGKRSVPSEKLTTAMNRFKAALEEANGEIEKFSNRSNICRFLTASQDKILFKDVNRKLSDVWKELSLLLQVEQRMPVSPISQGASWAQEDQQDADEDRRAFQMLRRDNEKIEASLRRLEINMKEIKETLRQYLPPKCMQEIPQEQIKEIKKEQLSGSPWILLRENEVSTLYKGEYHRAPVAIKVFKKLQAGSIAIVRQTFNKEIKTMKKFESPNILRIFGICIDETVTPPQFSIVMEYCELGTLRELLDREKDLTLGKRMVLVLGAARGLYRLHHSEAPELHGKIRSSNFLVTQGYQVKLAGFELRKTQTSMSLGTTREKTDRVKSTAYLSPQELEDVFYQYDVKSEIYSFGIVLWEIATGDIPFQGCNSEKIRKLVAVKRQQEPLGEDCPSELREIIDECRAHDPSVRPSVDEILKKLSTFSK
How it was run: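 Compound dilutions (11 points, 3-fold, mostly from 30,000 nM, 1% DMSO final) competed with immobilized ligand for DNA- or phage-tagged protein, and bead-bound protein was measured by qPCR. Kd values came from Hill-equation fits with slope −1 (Levenberg-Marquardt).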

Compound	IC50 ([1]; Table 24) [nM]	IC50 ([1]; Table 27) [nM]	Kd (human MLKL (full length)) [nM]
[2H]C([2H])([2H])N1CCC(n2cc(-c3cnc(N)c4c(-c5ccc(NS(=O)(=O)C(F)F)c(O[C@@H](C)c6ccc(F)cc6)c5)nn(C)c34)cn2)CC1(C)C (stereo partly drawn) [Compound 152, N-(4-(4-amino-7-(1-(2,2-dimethyl-1-(methyl-d3)piperidin-4-yl)-1H-pyrazol-4-yl)-1-methyl-1H-pyrazolo[4,3-c]pyridin-3-yl)-2-((S)-1-(4-fluorophenyl)ethoxy)phenyl)-1,1-difluoromethanesulfonamide]	< 1000		
Cc1ncsc1-c1ccc(CNC(=O)[C@@H]2C[C@@H](O)CN2C(=O)[C@@H](NC(=O)CCCCC#Cc2cnc(N)c3c(-c4ccc(NS(=O)(=O)C(F)F)c(O[C@@H](C)c5ccc(F)cc5)c4)nn(C)c23)C(C)(C)C)cc1 [Compound 1026, (2S,4R)-1-[(2S)-2-(7-{4-amino-3-[4-(difluoromethanesulfonamido)-3-[(1S)-1-(4-fluorophenyl)ethoxy]phenyl]-1-methyl-1H-pyrazolo[4,3-c]pyridin-7-yl}hept-6-ynamido)-3,3-dimethylbutanoyl]-4-hydroxy-N-{[4-(4-methyl-1,3-thiazol-5-yl)phenyl]methyl}pyrrolidine-2-carboxamide]		1000 to 10000	10 to 1000
Cc1ncsc1-c1ccc(CNC(=O)[C@@H]2C[C@@H](O)CN2C(=O)[C@@H](NC(=O)C2(F)CC2)C(C)(C)C)c(OCCOCCOCCOCCn2cc(-c3cnc(N)c4c(-c5ccc(NS(=O)(=O)C(F)F)c(O[C@@H](C)c6ccc(F)cc6)c5)nn(C)c34)cn2)c1 [Compound 1061, (2S,4R)-N-({2-[2-(2-{2-[2-(4-{4-amino-3-[4-(difluoromethanesulfonamido)-3-[(1S)-1-(4-fluorophenyl)ethoxy]phenyl]-1-methyl-1H-pyrazolo[4,3-c]pyridin-7-yl}-1H-pyrazol-1-yl)ethoxy]ethoxy}ethoxy)ethoxy]-4-(4-methyl-1,3-thiazol-5-yl)phenyl}methyl)-1-[(2S)-2-[(1-fluorocyclopropyl)formamido]-3,3-dimethylbutanoyl]-4-hydroxypyrrolidine-2-carboxamide]		1000 to 10000	< 10
C[C@H](Oc1cc(-c2nn(C)c3c(-c4cnn(CCCCCCC(=O)Nc5cccc6c5CN(C5CCC(=O)NC5=O)C6=O)c4)cnc(N)c23)ccc1NS(=O)(=O)C(F)F)c1ccc(F)cc1 (stereo partly drawn) [Compound 1062, 7-(4-{4-amino-3-[4-(difluoromethanesulfonamido)-3-[(1S)-1-(4-fluorophenyl)ethoxy]phenyl]-1-methyl-1H-pyrazolo[4,3-c]pyridin-7-yl}-1H-pyrazol-1-yl)-N-[2-(2,6-dioxopiperidin-3-yl)-1-oxo-2,3-dihydro-1H-isoindol-4-yl]heptanamide]		1000 to 10000	< 10
Cc1ncsc1-c1ccc(CNC(=O)[C@@H]2C[C@@H](O)CN2C(=O)[C@@H](NC(=O)CCCCOC(=O)c2ccc(-c3cnc(N)c4c(-c5ccc(NS(=O)(=O)C(F)F)c(O[C@@H](C)c6ccc(F)cc6)c5)nn(C)c34)cc2)C(C)(C)C)cc1 [Compound 1064, 4-{[(2S)-1-[(2S,4R)-4-hydroxy-2-({[4-(4-methyl-1,3-thiazol-5-yl)phenyl]methyl}carbamoyl)pyrrolidin-1-yl]-3,3-dimethyl-1-oxobutan-2-yl]carbamoyl}butyl 4-{4-amino-3-[4-(difluoromethanesulfonamido)-3-[(1 S)-1-(4-fluorophenyl)ethoxy]phenyl]-1-methyl-1H-pyrazolo[4,3-c]pyridin-7-yl}benzoate]		1000 to 10000	10 to 1000
Cc1ncsc1-c1ccc(CNC(=O)[C@@H]2C[C@@H](O)CN2C(=O)[C@@H](NC(=O)CCCCCn2cc(-c3cnc(N)c4c(-c5ccc(NS(=O)(=O)C(F)F)c(O[C@@H](C)c6ccc(F)cc6)c5)nn(C)c34)cn2)C(C)(C)C)cc1 [Compound 1066, (2S,4R)-1-[(2S)-2-[6-(4-{4-amino-3-[4-(difluoromethanesulfonamido)-3-[(1S)-1-(4-fluorophenyl)ethoxy]phenyl]-1-methyl-1H-pyrazolo[4,3-c]pyridin-7-yl}-1H-pyrazol-1-yl)hexanamido]-3,3-dimethylbutanoyl]-4-hydroxy-N-{[4-(4-methyl-1,3-thiazol-5-yl)phenyl]methyl}pyrrolidine-2-carboxamide]		1000 to 10000	< 10
Cc1ncsc1-c1ccc(CNC(=O)[C@@H]2C[C@@H](O)CN2C(=O)[C@@H](NC(=O)CCCCCCCn2cc(-c3cnc(N)c4c(-c5ccc(NS(=O)(=O)C(F)F)c(O[C@@H](C)c6ccc(F)cc6)c5)nn(C)c34)cn2)C(C)(C)C)cc1 [Compound 1067, (2S,4R)-1-[(2S)-2-[8-(4-{4-amino-3-[4-(difluoromethanesulfonamido)-3-[(1S)-1-(4-fluorophenyl)ethoxy]phenyl]-1-methyl-1H-pyrazolo[4,3-c]pyridin-7-yl}-1H-pyrazol-1-yl)octanamido]-3,3-dimethylbutanoyl]-4-hydroxy-N-{[4-(4-methyl-1,3-thiazol-5-yl)phenyl]methyl}pyrrolidine-2-carboxamide]		< 1000	< 10
C[C@H](Oc1cc(-c2nn(C)c3c(-c4cnn(C5CCN(C(=O)c6cccc(C(=O)NC7CCC(=O)NC7=O)c6)CC5)c4)cnc(N)c23)ccc1NS(=O)(=O)C(F)F)c1ccc(F)cc1 (stereo partly drawn) [Compound 1084, 3-[4-(4-{4-amino-3-[4-(difluoromethanesulfonamido)-3-[(1S)-1-(4-fluorophenyl)ethoxy]phenyl]-1-methyl-1H-pyrazolo [4,3-c]pyridin-7-yl}-1H-pyrazol-1-yl)piperidine-1-carbonyl]-N-(2,6-dioxopiperidin-3-yl)benzamide]		1000 to 10000	< 10
C[C@H](Oc1cc(-c2nn(C)c3c(-c4cnn(C5CCN(C(=O)c6ccc(C(=O)NC7CCC(=O)NC7=O)cc6)CC5)c4)cnc(N)c23)ccc1NS(=O)(=O)C(F)F)c1ccc(F)cc1 (stereo partly drawn) [Compound 1086, 4-[4-(4-{4-amino-3-[4-(difluoromethanesulfonamido)-3-[(1S)-1-(4-fluorophenyl)ethoxy]phenyl]-1-methyl-1H-pyrazolo[4,3-c]pyridin-7-yl}-1H-pyrazol-1-yl)piperidine-1-carbonyl]-N-(2,6-dioxopiperidin-3-yl)benzamide]		1000 to 10000	< 10
C[C@H](Oc1cc(-c2nn(C)c3c(-c4cnn(C5CCN(C(=O)CC6CN(c7cccc8c7C(=O)N(C7CCC(=O)NC7=O)C8=O)C6)CC5)c4)cnc(N)c23)ccc1NS(=O)(=O)C(F)F)c1ccc(F)cc1 (stereo partly drawn) [Compound 1112, N-[4-(4-amino-7-{1-[1-(2-{1-[2-(2,6-dioxopiperidin-3-yl)-1,3-dioxo-2,3-dihydro-1H-isoindol-4-yl]azetidin-3-yl}acetyl)piperidin-4-yl]-1H-pyrazol-4-yl}-1-methyl-1H-pyrazolo[4,3-c]pyridin-3-yl)-2-[(1S)-1-(4-fluorophenyl)ethoxy]phenyl]-1,1-difluoromethanesulfonamide]		1000 to 10000	< 10
C[C@H](Oc1cc(-c2nn(C)c3c(-c4cnn(C5CCN(C(=O)c6ccc7c(N8CCC(=O)NC8=O)coc7c6)CC5)c4)cnc(N)c23)ccc1NS(=O)(=O)C(F)F)c1ccc(F)cc1 [Compound 1117, N-{4-[4-amino-7-(1-{1-[3-(2,4-dioxo-1,3-diazinan-1-yl)-1-benzofuran-6-carbonyl]piperidin-4-yl}-1H-pyrazol-4-yl)-1-methyl-1H-pyrazolo[4,3-c]pyridin-3-yl]-2-[(1S)-1-(4-fluorophenyl)ethoxy]phenyl}-1,1-difluoromethanesulfonamide]		1000 to 10000	< 10
